# From US20220031680A1, “Donecopride As Neuroprotective Agent In the Treatment of Neurodegenerative Diseases” (priority 2018, published 2022)
# Several values for one entry are separate records, joined by “and”; a condition that tells them apart may be missing. Equal values may be shown once.
# Tests used:
# [1] = tested on: α-syn; experiment: α-syn aggregation in TH neurons injured with MPP+; format: cell-based, rat; settings: MPP+ 4 μM 48 h; 1 h pre-incubation
# Procedure: The aim of the present study was to investigate the neuroprotective effect of MR36014 and MR33583 (at 4 concentrations) on dopaminergic TH-positive neurons injured with MPP^+. The test compounds were pre-incubated for 1 hour before MPP^+ application (4 μM for 48 h). The neuroprotective effect (survival and neurite network) of test compounds was investigated. In addition, the effect on the cytoplasmic alpha-synuclein accumulation was studied.
# Rat dopaminergic neurons were cultured as described by Callizot et al. (2019) PLoS One 14:e0215277 and Visanji et al. (2008) FASEB J. 22:2488-2497. Briefly, pregnant female rat (Wistar) of 15 days of gestation were killed using a deep anesthesia with CO2 chamber and a cervical dislocation. The midbrains obtained from 15-day-old rat embryos (Janvier, France) were dissected under a microscope. […]
# Midbrains were dissociated by trypsinisation for 20 min at 37° C. […] Viable cells were counted in a Neubauer cytometer using the trypan blue exclusion test. […]
# Briefly, on day 6 of culture, the medium was removed, and fresh medium was added, with or without test compounds and with or without MPP^+ for 48 hours diluted in control medium. 6 wells per condition were assessed. […]
# Test compounds were tested in 96-well plate (n=6 culture wells per condition). […] The following conditions were assessed: […]
# [2] = tested on: TDP-43; experiment: Cytoplasmic TDP-43 in spinal motor neurons after glutamate injury; format: cell-based, rat; settings: glutamate 5 μM 20 min; highest dose
# Procedure: Rat spinal cord motor neurons (MNs) were cultured as described by Martinou et al. (1992) Neuron. 8:737-744 and Wang et al. (2013) Hum. Mol. Genet. 22:4706-4719. Briefly, pregnant female rats of 14 days gestation (Rats Wistar; Janvier Labs France) were killed using a deep anesthesia with CO2 chamber and a cervical dislocation. Then, fetuses were removed from the uterus and immediately placed in ice-cold L15 Leibovitz medium with a 2% penicillin (10,000 U/ml) and streptomycin (10 mg/ml) solution (PS) and 1% bovine serum albumin (BSA).
# Spinal cords were treated for 20 min at 37° C. with a trypsin-EDTA solution at a final concentration of 0.05% trypsin and 0.02% EDTA. […] Viable cells were counted in a Neubauer cytometer, using the trypan blue exclusion test. […]
# Test compounds were tested in 96-well plate (n=6 culture wells per condition). The following conditions were assessed: […]
# The following endpoints were automatically assessed: • Analysis of neuron survival (MAP-2 staining, number of neurons), • Analysis of neurite network (MAP-2 staining, total neurite length in μm), • Analysis of neurite network/neurons (neuronal network/number of MAP2 neurons), • Analysis of cytoplasmic TDP-43 in MAP-2 positive neurons (overlapping between MAP-2 and cytoplasmic TDP-43 in μm^2).
SMILES,concentrations reducing accumulation/aggregation of α-syn [1],dose reducing the signal of TDP43 in the cytoplasm of spinal motor neurons [2]
COc1cc(N)c(F)cc1C(=O)CCC1CCN(CC2CCCCCC2)CC1 [MR36014],all investigated doses,
COc1cc(N)c(F)cc1C(=O)CCC1CCN(CC2CCCC2)CC1 [MR33583],50 nM and 100 nM,100 nM
